This is an account of results in paper PMC8301926 (Biomolecules, 2021).

Each structure is given as a SMILES string. Values joined by “and” are separate entries in the source; they are usually repeats but may differ in a detail not shown here. Equal values may be shown once. Read-outs that look alike come from different tables or passages of the source.

In assay [1] the target is T1, recombinant human monoamine oxidase A (hMAO-A) (Homo sapiens, UniProt P21397).
T1 sequence (P21397 1-527): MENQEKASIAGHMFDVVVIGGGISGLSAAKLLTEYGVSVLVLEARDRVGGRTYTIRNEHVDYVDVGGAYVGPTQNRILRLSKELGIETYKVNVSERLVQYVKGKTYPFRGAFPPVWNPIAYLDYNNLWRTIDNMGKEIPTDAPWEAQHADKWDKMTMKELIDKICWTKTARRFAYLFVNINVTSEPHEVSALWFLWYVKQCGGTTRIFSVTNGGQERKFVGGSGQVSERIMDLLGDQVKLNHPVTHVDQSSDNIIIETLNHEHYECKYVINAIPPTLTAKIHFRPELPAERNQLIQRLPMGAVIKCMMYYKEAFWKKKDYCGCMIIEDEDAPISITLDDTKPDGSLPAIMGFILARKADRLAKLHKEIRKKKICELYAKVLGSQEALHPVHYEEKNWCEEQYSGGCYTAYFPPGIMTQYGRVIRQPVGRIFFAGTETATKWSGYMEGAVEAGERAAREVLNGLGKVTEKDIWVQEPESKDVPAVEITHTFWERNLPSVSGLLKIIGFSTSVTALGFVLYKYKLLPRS
Briefly: hMAO-A inhibition, MAO-Glo chemiluminescent assay. The following applies: for IC50: mean ± SD of triplicate experiments; for SI (selectivity index): ratio of the IC50 value for hMAO-A inhibition to that for hMAO-B inhibition. The class given is biochemical.

In assay [2] the target is T2, recombinant human monoamine oxidase B (hMAO-B) (Homo sapiens, UniProt P27338).
T2 sequence (P27338 1-520): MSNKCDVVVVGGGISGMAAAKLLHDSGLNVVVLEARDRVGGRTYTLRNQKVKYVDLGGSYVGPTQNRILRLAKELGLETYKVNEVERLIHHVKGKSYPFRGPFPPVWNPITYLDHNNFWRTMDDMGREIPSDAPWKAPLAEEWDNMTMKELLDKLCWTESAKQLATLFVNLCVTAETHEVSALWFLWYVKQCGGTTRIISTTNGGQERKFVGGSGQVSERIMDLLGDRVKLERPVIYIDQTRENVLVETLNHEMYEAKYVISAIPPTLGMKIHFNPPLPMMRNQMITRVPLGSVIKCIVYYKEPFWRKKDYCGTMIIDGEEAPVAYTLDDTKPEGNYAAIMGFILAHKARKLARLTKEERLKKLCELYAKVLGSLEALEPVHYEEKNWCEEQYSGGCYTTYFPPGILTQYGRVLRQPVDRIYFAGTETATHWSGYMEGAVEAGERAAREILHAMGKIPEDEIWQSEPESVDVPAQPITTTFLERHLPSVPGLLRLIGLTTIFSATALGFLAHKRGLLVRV
Briefly: hMAO-B inhibition, MAO-Glo chemiluminescent assay. The class given is biochemical. The following applies: mean ± SD of triplicate experiments.

Assay [3] has as its target T1, recombinant human monoamine oxidase A (hMAO-A). Briefly: hMAO-A enzyme kinetics (Lineweaver-Burk, Dixon, secondary plots). The class given is biochemical. The following applies: for Inhibition Type, hMAO-A: Lineweaver-Burk and Dixon plots; for Ki: from secondary plots.
Assay [4] has as its target T2, recombinant human monoamine oxidase B (hMAO-B). Description: hMAO-B enzyme kinetics (Lineweaver-Burk, Dixon, secondary plots). The note with it: for Inhibition Type, hMAO-B: Lineweaver-Burk and Dixon plots; for Ki: from secondary plots. The assay is classed as biochemical.
Assay [5] concerns recombinant human MAO-A (hMAO-A). Also on record: method as in earlier work. The note with it: ref 27 (Dittman et al., 2004); read-out: IC50, recombinant human MAO-A (literature); cited from earlier work.
Assay [6] concerns the target T3, human M4 muscarinic acetylcholine receptor (hM4R) (Homo sapiens, UniProt P08173).
T3 construct: host or cells: CHO cells
T3 sequence (P08173 1-479): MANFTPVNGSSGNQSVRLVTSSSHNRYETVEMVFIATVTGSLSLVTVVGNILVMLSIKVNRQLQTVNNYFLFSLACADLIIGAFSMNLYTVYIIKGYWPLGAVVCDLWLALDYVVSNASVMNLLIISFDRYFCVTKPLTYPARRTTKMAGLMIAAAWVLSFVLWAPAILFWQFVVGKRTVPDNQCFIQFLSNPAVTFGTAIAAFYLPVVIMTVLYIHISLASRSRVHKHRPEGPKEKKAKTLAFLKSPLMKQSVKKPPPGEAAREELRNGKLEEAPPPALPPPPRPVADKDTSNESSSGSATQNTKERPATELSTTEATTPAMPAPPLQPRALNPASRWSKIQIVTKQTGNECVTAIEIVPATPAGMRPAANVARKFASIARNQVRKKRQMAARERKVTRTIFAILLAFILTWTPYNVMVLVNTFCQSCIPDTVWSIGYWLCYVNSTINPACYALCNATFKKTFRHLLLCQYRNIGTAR
Briefly: M4 (h) functional GPCR assay, antagonist effect, cAMP HTRF. The class given is cell-based. The following applies: CHO cells, cAMP; read-out: Reference IC50, M4 reference antagonist. The procedure:
The cellular and nuclear receptor functional assays were carried out at Eurofins Cerep (Le Bois I’ Eveque, France) following the in-house protocols (catalog items G029-1262, G029-1474, G030-1658, G030-1659, G031-1243, G031-1244, G032-1670, G032-1671, G033-4217, and G033-4212). The experimental methods for the assays were as described in the previous reports and the general methodology is summarized in the Supplementary Information Table S1. Recombinant human Chinese hamster ovary (CHO) cells and rat basophilic leukemic (RBL) cells were transfected with the GPCR genes of interest (hM1R, hM2R, hM3R, hM4R, and hM5R). The functional assay provided the readouts based on the measurements of calcium ion mobilization (for the Gαq/11-coupled receptors) and cAMP level (for the Gαi/o-coupled receptors).
Stable CHO cells expressing the transfected cDNA of human M2 receptors were suspended in a medium containing HBSS buffer complemented with 20-mM HEPES buffer (pH 7.4) and 500-µM IBMX, whereas the stable human M4 receptor cloned CHO cells were distributed in HBSS buffer with 20-mM HEPES/NaOH (pH 7.4), 70-mM NaCl, 5.33-mM KCl, 1.25-mM CaCl2, 0.5-mM MgCl2, 0.41-mM MgSO4, 0.441-mM KH2PO4, 0.3-mM Na2HPO4, 0.1% glucose, and 500-µM IBMX. […] The cAMP level was calculated as the ratio of the signal measured at 665 nm to that measured at 620 nm. […]
Assay Source Stimulus Incubation Measured Detection References […]

On to `Cc1coc2c1C(=O)C(=O)c1c-2ccc2c1CCCC2(C)C` [Tanshinone IIA], for which the IC50 in assay [1] (read-out: IC50, hMAO-A) was < 10 µM and 6.08 µM; in assay [2] it was < 25 µM and 17.5 µM; in assay [5] it was greater than 400 µM. Besides, in assay [1], the “SI (selectivity index)” value is listed as 0.35. The “Inhibition Type, hMAO-A” value in assay [3] is reported as “Mixed”; in assay [3] (listed as 2), “mixed-mode”. In addition, the Ki in assay [3] (read-out: Kic, hMAO-A) worked out at 0.72 ± 0.13 µM; in assay [3] (read-out: Kiu, hMAO-A) it was 2.74 ± 0.37 µM; in assay [4] (read-out: Kic, hMAO-B) it was 12.9 ± 1.14 µM; in assay [4] (read-out: Kiu, hMAO-B) it was 13.7 ± 0.58 µM. For the same compound, the “Inhibition Type, hMAO-B” value in assay [4] is “Non-competitive”; in assay [4] (listed as 2), “noncompetitive inhibition”.
As for `Cc1cccc2c3c(ccc12)C1=C(C(=O)C3=O)[C@@H](C)CO1` [Dtan I, dihydrotanshinone I, reference compound], in assay [5], the IC50 was 23 µM.
As to `CCOC(=O)c1c(C)[nH]c2ccc3c(c12)CN1CCc2cc(OC)ccc2C1O3` (stereo not shown) [PD 102807, reference compound], in assay [6], the IC50 is 36 nM.
Turning to `C[C@H]1COC2=C1C(=O)C(=O)c1c2ccc2c1CCCC2(C)C` [Cryptotanshinone], the IC50 in assay [1] (IC50, hMAO-A) was < 10 µM and 8.7 µM; in assay [2], 23.1 ± 2.1 µM; in assay [5], 84 µM. Further, the “SI (selectivity index)” value in assay [1] came out at 0.38. Further, the Ki in assay [3] (Kic, hMAO-A) worked out at 4.99 ± 0.34 µM; in assay [3] (Kiu, hMAO-A), 38.1 ± 1.79 µM; in assay [4] (Kic, hMAO-B), 9.33 ± 0.1 µM. Moreover, the results for the “Inhibition Type, hMAO-A” value in assay [3] and in assay [3] (listed as 3) were “Mixed” and “mixed-mode”, respectively. The “Inhibition Type, hMAO-B” value in assay [4] is reported as “Competitive”; in assay [4] (listed as 3) it was “competitive enzyme inhibition”.
